Results: US11510902B2, “Method for preventing or treating non-alcoholic fatty liver disease by antrodins” (Simpson Biotech Co., Ltd., priority 2019, dated 2022)

How the values were obtained:
Hep G2 cells [1] = assay: Free fatty acids (FFA)-induced lipid accumulation and Oil Red determination; type: cell-based, Human; conditions: Oil Red; for attenuated lipid accumulation in the cells: vs control group
Protocol: (§1) Human hepatoma cell line Hep G2 was cultured in Dulbecco's modified Eagle's medium high glucose (DMEM-HG) containing 10% fetal bovine serum, 100 U/ml penicillin and […] streptomycin at 37° C. under 5% CO2 in an incubator.
1×10^5 Hep G2 cells were seeded in a 96-well plate and incubated with serum-free cellular medium containing 1% BSA for 24 hrs. To induce lipid accumulation, the above cells were seeded in a mixture of 0.33 mM palmitic acid and 0.66 mM oleic acid for 24 hrs, which were dissolved in serum-free medium with or without Antrodin. After lipid accumulation and Antrodin treatment, cells were washed with PBS and then fixed by 4% paraformaldehyde for 15 mins at room temperature. The fixed cells were washed with PBS for 5 mins, and then rinsed with 60% isopropanol twice; followed by incubation with 1 ml Oil Red kit for 10 mins. For quantitative analysis of cellular lipids, dye in the cellular lipids were extracted with 0.5 ml of isopropanol, and then measured at 490 nm.

[2] = system: C57BL/6J (B6) mice on high fat diet; assay: High fat diet mice, treating process (20 weeks, dosing 11th to 20th week); type: in vivo; parameters: Malondiadehyde in liver: unit not given here; conditions: for body weight: 11th to 20th week, high fat diet 20 weeks; for ALT / AST / TC / TG: serum; for Plasma insulin increasing rate / body weight increasing rate: relative to control group; for lipid droplets in the liver, hematoxylin-eosin staining of liver sections: FIG. 5; for MDA level increasing rate was reduced by: liver
Protocol: 2.1 8-week-old male C57BL/6J (B6) mice were used, which were purchased from the National Laboratory Animal Center (Taipei, Taiwan). All animals were maintained at an animal room at a temperature of 23±2° C., and 12 hrs light/12 hrs dark cycle.
According to the “Healthy food of liver health effects assessment” (Taiwan Food and Drug Administration, Taiwan), all 8-week test mice were randomized into a control group, a high fat diet group, and test (high fat diet with different dosage of Hepasim®, Antrodin B or Antrodin C) groups. Each group contained 3-4 mice.
The control group was given 20 weeks of normal diet, and all other groups were given 20 weeks of high fat diet. […] Body weights of the mice in each group were recorded weekly. At the end of 20 weeks, all mice were sacrificed by CO2 overdose. At the time of death of the mouse, blood was collected from the heart of the mouse. To separate the serum, whole blood was centrifuged in a refrigerated centrifuge at 15,700×g at 4° C. for 5 minutes. Livers were removed from the mice, and then rinsed in ice-cold saline. Liver samples were divided for various assays and histological assessment.
Stored liver samples (0.1 g) were homogenized in 1 ml PBS, and then was centrifuged in a refrigerated centrifuge at 15,700×g at 4° C. for 5 minutes to remove pellets. The levels of aspartate aminotransferase (AST), alanine aminotransferase (ALT), total cholesterol (TC) and total triglyceride (TG) of the serum and the liver were measured by corresponding detection kits (Randox). Blood sugar in whole blood was detected by blood sugar machine (Roche). Plasma insulin was detected by Insulin mouse ELISA kit (Invitrogen). Malondialdehyde (MDA) level in liver was measured by using Lipid Peroxidation Assay Kit (Colorimetric/Fluorometric) (abcam, #ab118977). Liver samples were divided for various assays and histological assessment.
The livers were removed from the mice, and then fixed in 10% neural formalin. Liver samples were dehydrated by placing in ethanol at different concentrations (30, 50, 70, 95, 99.5%) and xylene. Finally, liver samples were embedded in paraffin section. For hematoxylin-eosin staining, the liver tissue sections were placed in xylene for 30 minutes for dewaxing, and then sequentially placed in 99.5% ethanol for 10 minutes, 90% ethanol for 5 minutes, 70% ethanol for 1 minute, 50% ethanol for 1 minute and 30% ethanol for 1 minutes for rehydration, and then soaked in distilled water for 10 minutes. To stained nuclei, the samples were soaked in hematoxylin solution for 4 minutes, and then soaked in distilled water for several minutes, followed by soaking in eosin solution for 2 minutes to stain cytoplasm, and then washed in distilled water for 10 minutes. Finally, samples were sequentially placed in 90% ethanol for 2 minutes, 99.5% ethanol for 2 minutes and xylene for 20 minutes, and then mounted by mounting medium.
All results were expressed as mean±SD. Significant differences were analyzed with two-tailed Student's t-test. P<0.05 represents the statistical difference between two groups.

Hep G2 cells [3] = assay: Cell viability test (alamar blue); type: cell-based, Human; conditions: concentration less than 100 μg/ml, 72 hrs
Protocol: as §1
Hepasim® was a mixture from Antrodia cinnamomea mycelia, which was prepared from water or organic solvent extract of Antrodia cinnamomea mycelia. The extract of Antrodia cinnamomea mycelia comprised Antrodin B-E. 5×10^3 Hep G2 cells were seeded in a 96-well plate for 24 hrs, and then incubated with different concentrations of Hepasim®, Antrodin B, Antrodin C and Antrodin D for 72 hrs. After treatment, cells were incubated with alamar blue (10%, w/v) for 3 hrs, and then was read at […]. Cell viability was calculated by [(OD570−OD600)test/(OD570−OD600)control]×100.

With CC(C)=CCOc1ccc(C2=C(CC(C)C)C(=O)NC2=O)cc1 [Antrodin B, 3-isobutyl-4-[4-(3-methyl-2-butenyloxy)phenyl]-1H-pyrrol-2,5-dione] the “attenuated lipid accumulation in the cells” value (Hep G2 cells [1]; 10 μg/ml) was 12.8%, the “attenuated lipid accumulation in the cells” value (Hep G2 cells [1]; 100 μg/ml) was 9.3% and the “cellular lipid accumulation as compared with the control group” value (Hep G2 cells [1]; FIG. 2) was “significantly reduced”. For the same compound, the body weight ([2]; 10 mg/Kg oral gavage every day) was 37.14 ± 5.18 g, the “reduction of body weight increasing rate as compared with the high fat diet group” value ([2]; 10 mg/Kg, at the end of 20 weeks) was 14% and the ALT ([2]; 10 mg/Kg, treating process) was 29.36 ± 6.17 U/l. The AST ([2]; 10 mg/Kg, treating process) was 44.39 ± 7.06 U/l, the TC ([2]; 10 mg/Kg, treating process) was 266.61 ± 25.99 mg/dL and the TG ([2]; 10 mg/Kg, treating process) was 189.57 ± 9.35 mg/dL. The “MDA level increasing rate in liver” value ([2]; 10 mg/Kg, treating process) was 202.8%, the Malondiadehyde in liver ([2]; 10 mg/Kg, treating process) was 2.15 ± 0.58 and the Plasma insulin ([2]; 10 mg/Kg, treating process) was 0.99 ± 0.41 ng/mL. The blood glucose ([2]; 10 mg/Kg, treating process) was 367.20 ± 34.40 mg/dL, the liver hypertrophy ([2]; 10 mg/Kg, treating process) was “significantly inhibited” and the liver weight ([2]; 10 mg/Kg, treating process) was 1.39 ± 0.33 g. For the same compound, the “plasma insulin level increasing rate was reduced by” value ([2]; 10 mg/Kg, treating process) was 223.6%, the “Plasma insulin increasing rate” value ([2]; 10 mg/Kg, treating process) was 80% and the “body weight increasing rate” value ([2]; 10 mg/Kg, treating process) was 21.1%. The body weight ([2]; 30 mg/Kg oral gavage every day) was 41.82 ± 2.61 g, the ALT ([2]; 30 mg/Kg, treating process) was 29.38 ± 11.45 U/l and the AST ([2]; 30 mg/Kg, treating process) was 53.64 ± 9.99 U/l. The TC ([2]; 30 mg/Kg, treating process) was 287.73 ± 48.26 mg/dL, the TG ([2]; 30 mg/Kg, treating process) was 187.77 ± 6.53 mg/dL and the “MDA level increasing rate in liver” value ([2]; 30 mg/Kg, treating process) was 97.2%. For the same compound, the Malondiadehyde in liver ([2]; 30 mg/Kg, treating process) was 1.4 ± 0.56, the Plasma insulin ([2]; 30 mg/Kg, treating process) was 1.84 ± 0.93 ng/mL and the blood glucose ([2]; 30 mg/Kg, treating process) was 389.00 ± 41.63 mg/dL. For the same compound, the liver weight ([2]; 30 mg/Kg, treating process) was 1.5 ± 0.25 g, the “plasma insulin level increasing rate was reduced by” value ([2]; 30 mg/Kg, treating process) was 69.1% and the “Plasma insulin increasing rate” value ([2]; 30 mg/Kg, treating process) was 234.5%. The “body weight increasing rate” value ([2]; 30 mg/Kg, treating process) was 36.3%, the “lipid droplets in the liver, hematoxylin-eosin staining of liver sections” value ([2]; "10%" Antrodin (so in the source), treating process) was “significantly attenuated” and the “lipid droplets in the liver, hematoxylin-eosin staining of liver sections” value ([2]; "30%" Antrodin (so in the source), treating process) was “significantly attenuated”. For the same compound, the “MDA level increasing rate was reduced by” value ([2]; treated with "10%" Antrodin (so in the source), treating process) was 24.8%, the “MDA level increasing rate was reduced by” value ([2]; treated with "30%" Antrodin (so in the source), treating process) was 129.6% and the “liver appearance: pale color (phenomenon of fatty liver)” value ([2]; treating process, FIG. 4) was “not observed”. The “cytotoxicity to Hep G2 cells” value (Hep G2 cells [3]) was “no cytotoxicity”.
